Where “and” joins values, the source holds several entries; their conditions need not be identical. Identical values can stand only once. Inconclusive results and toxic doses are left out. Peptide text beside a SMILES is read from it. * marks the point of attachment. CH2Cl = ClC*

The subject of the assay is BDF1 mice, B16 melanoma ip, median survival T/C. The assay is described as follows: NCI In Vivo Anticancer Drug Screen. Data for tumor model B16 Melanoma (intraperitoneal) in B6D2F1 (BDF1) mice. The conditions noted are these: endpoint: median survival time, higher = longer survival. In short, it runs like this:
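Compounds were tested in mice carrying transplantable tumors. Survival or tumor size was recorded, and each value is the treated-group measurement (T) divided by that of the vehicle-treated control group (C).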

[1] abbreviates: dose: 50.0 mg/kg/injection, schedule: Q01DX009 (ip), vehicle: saline.
[2] abbreviates: dose: 100.0 mg/kg/injection, schedule: Q01DX009 (ip), vehicle: saline.
[3] abbreviates: dose: 200.0 mg/kg/injection, schedule: Q01DX009 (ip), vehicle: saline.
Where [4] appears, read: dose: 12.5 mg/kg/injection, schedule: Q01DX009 (ip), vehicle: saline.
[5] abbreviates: dose: 25.0 mg/kg/injection, schedule: Q01DX009 (ip), vehicle: saline.
[6] abbreviates: dose: 50.0 mg/kg/injection, schedule: Q01DX009 (ip), vehicle: saline with Tween-80.
Setting [7] is: dose: 100.0 mg/kg/injection, schedule: Q01DX009 (ip), vehicle: saline with Tween-80.
[8] abbreviates: dose: 25.0 mg/kg/injection, schedule: Q01DX009 (ip), vehicle: saline with Tween-80.
Where [9] appears, read: dose: 25.0 mg/kg/injection, schedule: Q01DX009 (ip), vehicle: Klucel (hydroxypropylcellulose) (HPC).
Setting [10] is: dose: 50.0 mg/kg/injection, schedule: Q01DX009 (ip), vehicle: Klucel (hydroxypropylcellulose) (HPC).
Setting [11] is: dose: 12.5 mg/kg/injection, schedule: Q01DX009 (ip), vehicle: Klucel (hydroxypropylcellulose) (HPC).
Setting [12] is: dose: 100.0 mg/kg/injection, schedule: Q01DX009 (ip), vehicle: Klucel (hydroxypropylcellulose) (HPC).
[13] abbreviates: dose: 200.0 mg/kg/injection, schedule: Q01DX009 (ip), vehicle: Klucel (hydroxypropylcellulose) (HPC).
The mark [14] stands for this setting: dose: 1.56 mg/kg/injection, schedule: Q01DX009 (ip), vehicle: saline.
Setting [15] is: dose: 6.25 mg/kg/injection, schedule: Q01DX009 (ip), vehicle: saline.

Turning to `CCCCCCCCCCCCCC(=O)OC12CC(C)C3(O)C(C=C(CO)C(O)C4(O)C(=O)C(C)=CC43)C1C2(C)C` (centres undefined), the T/C (dose: 0.01 mg/kg/injection, schedule: Q01DX009 (ip), vehicle: saline + alcohol) was 99 % of control; the T/C (dose: 0.03 mg/kg/injection, schedule: Q01DX009 (ip), vehicle: saline + alcohol) is 107 % of control; the T/C (dose: 0.06 mg/kg/injection, schedule: Q01DX009 (ip), vehicle: saline + alcohol) is 104 % of control; the T/C (dose: 0.12 mg/kg/injection, schedule: Q01DX009 (ip), vehicle: saline + alcohol) is 94 % of control; the T/C (dose: 0.13 mg/kg/injection, schedule: Q01DX009 (ip), vehicle: saline + alcohol) was 100 % of control.

For the compound `CC1CN1P(=O)(OCCC#N)N1CC1C` (centres undefined), the T/C was 121 % of control under setting [1], 115 % of control under setting [2] and 120 % of control under setting [3].

As for `O=C(O)c1cccc(S(=O)(=O)N(CCO)CCO)c1`, the T/C under setting [4] was 95 % of control, the T/C under setting [5] was 97 % of control, the T/C under setting [6] was 91 % of control and the T/C under setting [1] was 92 % of control.

As to `CCSC(=O)N1c2ccc(OC)cc2C=CC1C#N` (centres undefined), under setting [7], the T/C was 121 % of control.

`CC(=O)NC(CC(C)C)C(=O)NC(Cc1ccccc1)C(=O)CCl` (stereo not drawn) (Ac-Leu-Phe-CH2Cl; configuration not given here): the T/C is 100 % of control (dose: 1.56 mg/kg/injection, schedule: Q01DX009 (ip), vehicle: Klucel (hydroxypropylcellulose) (HPC)); 100 % of control (dose: 3.12 mg/kg/injection, schedule: Q01DX009 (ip), vehicle: Klucel (hydroxypropylcellulose) (HPC)); 96 % of control and 97 % of control (dose: 6.25 mg/kg/injection, schedule: Q01DX009 (ip), vehicle: Klucel (hydroxypropylcellulose) (HPC)).

As for `C#CC1(OCC(CCl)OC(N)=O)CCCCC1` (centres undefined), the T/C runs as follows: under setting [8], 87 % of control; under setting [7], 104 % of control.

Regarding `CC(C)OCCS(=O)(=O)Oc1ncc(Cl)cc1Cl`, the T/C is 100 % of control (dose: 100.0 mg/kg/injection, schedule: Q04DX003 (ip), vehicle: saline with Tween-80) and 93 % of control (dose: 200.0 mg/kg/injection, schedule: Q04DX003 (ip), vehicle: saline with Tween-80).

`O=S(=O)(NN=C(c1ccccc1)c1ccccc1)c1ccccc1`: the T/C is, setting by setting: under setting [9], 86 % of control; under setting [10], 91 % of control.

In the case of `O=C(CC(O)(C(F)(F)F)C(F)(F)F)CC(O)(C(F)(F)F)C(F)(F)F`, the T/C was 116 % of control (dose: 1.25 mg/kg/injection, schedule: Q04DX003 (ip), vehicle: saline); 122 % of control and 116 % of control (dose: 2.5 mg/kg/injection, schedule: Q04DX003 (ip), vehicle: saline).

Consider `COC1CC(C)C(OC)c2cc(O)cc(c2O)NC(=O)/C(C)=C/C=C\C(C)C(OC(N)=O)/C(C)=C\C(C)C1OC` (centres undefined), for which the T/C by setting is: (dose: 2.5 mg/kg/injection, schedule: Q01DX009 (ip), vehicle: Klucel (hydroxypropylcellulose) (HPC)) 176 % of control and 187 % of control; (dose: 5.0 mg/kg/injection, schedule: Q01DX009 (ip), vehicle: Klucel (hydroxypropylcellulose) (HPC)) 177 % of control and 208 % of control; (dose: 5.0 mg/kg/injection, schedule: Q01DX009 (ip), vehicle: saline + alcohol) 242 % of control.

Take `O=C(Nc1cccc(C(F)(F)F)c1)c1cccc(C(=O)Nc2cccc(C(F)(F)F)c2)c1`: the T/C by setting is: under setting [11], 101 % of control; under setting [9], 106 % of control; under setting [10], 108 % of control.

For the compound `CC(=O)C(=O)NC1/C=C(C)\C=C/C(O)C/C=C(C)\C=C/C(O)CC2OC(=O)C1(C)C(=O)C2C` (centres undefined), the T/C runs as follows: under setting [9], 100 % of control; under setting [10], 118 % of control; under setting [12], 117 % of control; under setting [13], 112 % of control.

`COc1ccc(OC(=O)Nc2ccccc2OC)cc1`: the T/C reads like this: under setting [12], 100 % of control; under setting [13], 93 % of control; (dose: 400.0 mg/kg/injection, schedule: Q01DX009 (ip), vehicle: Klucel (hydroxypropylcellulose) (HPC)) 93 % of control.

`BrCCCC1CCCCC1`: the T/C is 92 % of control under setting [10], 100 % of control under setting [12] and 92 % of control under setting [13].

In the case of `Cc1ccc(C(=O)NC2C(=O)NC(C(C)C)C(=O)N3CCCC3C(=O)N(C)CC(=O)N(C)C(C(C)C)C(=O)OC2C)c2c1Oc1c(c(C(=O)NC3C(=O)NC(C(C)C)C(=O)N4CCCC4C(=O)N(C)CC(=O)N(C)C(C(C)C)C(=O)OC3C)c3nc(-c4ccccc4)c(=O)oc3c1C)N2` (centres undefined), the T/C is 124 % of control (dose: 0.13 mg/kg/injection, schedule: Q04DX003 (ip), vehicle: saline + alcohol); 155 % of control (dose: 0.13 mg/kg/injection, schedule: Q04DX003 (ip), vehicle: water); 152 % of control (dose: 0.25 mg/kg/injection, schedule: Q04DX003 (ip), vehicle: saline + alcohol); 156 % of control (dose: 0.5 mg/kg/injection, schedule: Q04DX003 (ip), vehicle: saline + alcohol); 163 % of control (dose: 0.5 mg/kg/injection, schedule: Q04DX003 (ip), vehicle: water); 191 % of control (dose: 1.0 mg/kg/injection, schedule: Q04DX003 (ip), vehicle: saline + alcohol). In addition, the T/C (dose: 1.0 mg/kg/injection, schedule: Q04DX003 (ip), vehicle: water) was 173 % of control.

Regarding `CC(C)(O)C(C)(O)c1cccc(Cl)c1` (centres undefined), the T/C was 107 % of control under setting [11], 102 % of control under setting [9] and 88 % of control under setting [10].

Take `COC(=O)C(Cl)(Cl)N=Nc1c(Cl)cc(Cl)c(C)c1Cl`: the T/C is 112 % of control (dose: 12.5 mg/kg/injection, schedule: Q01DX009 (ip), vehicle: saline with Tween-80); 106 % of control under setting [8]; 111 % of control under setting [6]; 99 % of control under setting [7]; 97 % of control (dose: 200.0 mg/kg/injection, schedule: Q01DX009 (ip), vehicle: saline with Tween-80).

Turning to `CN1C2CCC1CC(OC(c1ccccc1)c1ccccc1)C2` (centres undefined), the T/C was 102 % of control under setting [14]; 107 % of control (dose: 3.12 mg/kg/injection, schedule: Q01DX009 (ip), vehicle: saline); 107 % of control under setting [15]; 110 % of control under setting [4]; 107 % of control under setting [5].

With `COC(=O)Nc1nc2ccc(C(=O)c3ccccc3)cc2[nH]1`, the T/C (dose: 2.0 mg/kg/injection, schedule: Q04DX003 (ip), vehicle: saline with Tween-80) is 95 % of control; the T/C (dose: 4.0 mg/kg/injection, schedule: Q04DX003 (ip), vehicle: saline with Tween-80) was 106 % of control; the T/C (dose: 8.0 mg/kg/injection, schedule: Q04DX003 (ip), vehicle: saline with Tween-80) was 101 % of control; the T/C (dose: 15.0 mg/kg/injection, schedule: Q04DX003 (ip), vehicle: saline with Tween-80) is 114 % of control; the T/C (dose: 16.0 mg/kg/injection, schedule: Q04DX003 (ip), vehicle: saline with Tween-80) is 103 % of control; the T/C (dose: 200.0 mg/kg/injection, schedule: Q04DX003 (oral), vehicle: saline with Tween-80) is 115 % of control.

On to `NC(CCC(=O)O)C(=O)NC(CCC(=O)O)C(=O)O` (stereo not drawn) (H-Glu-Glu-OH; configuration not given here), for which the T/C by setting is: under setting [1], 97 % of control; under setting [2], 96 % of control; under setting [3], 93 % of control; (dose: 400.0 mg/kg/injection, schedule: Q01DX009 (ip), vehicle: saline) 91 % of control.

Regarding `O=C(NCCCN1CC1)C(=O)NCCCN1CC1`, the T/C is, setting by setting: under setting [14], 165 % of control; (dose: 3.13 mg/kg/injection, schedule: Q01DX009 (ip), vehicle: saline) 194 % of control; under setting [15], 96 % of control.

Turning to `CCN(CC)C(N)=S`, the T/C was 102 % of control (dose: 100.0 mg/kg/injection, schedule: Q04DX003 (ip), vehicle: Klucel (hydroxypropylcellulose) (HPC)); 95 % of control (dose: 200.0 mg/kg/injection, schedule: Q04DX003 (ip), vehicle: Klucel (hydroxypropylcellulose) (HPC)); 97 % of control (dose: 400.0 mg/kg/injection, schedule: Q04DX003 (ip), vehicle: Klucel (hydroxypropylcellulose) (HPC)).

On to `CN1CCC=C(C(=O)N2c3ccccc3CCc3ccccc32)C1`, for which the T/C was 97 % of control under setting [5], 87 % of control under setting [1] and 91 % of control under setting [2].
